Laboratory results from ChEMBL document CHEMBL1145642, “Farnesyl pyrophosphate synthase enantiospecificity with a chiral risedronate analog, [6,7-dihydro-5H-cyclopenta[c]pyridin-7-yl(hydroxy)methylene]bis(phosphonic acid) (NE-10501): Synthetic, structural, and modeling studies” (Bioorg Med Chem Lett, 2008).

Biological target: T1, Farnesyl pyrophosphate synthase (Homo sapiens, UniProt P14324)
T1 sequence (P14324 whole entry): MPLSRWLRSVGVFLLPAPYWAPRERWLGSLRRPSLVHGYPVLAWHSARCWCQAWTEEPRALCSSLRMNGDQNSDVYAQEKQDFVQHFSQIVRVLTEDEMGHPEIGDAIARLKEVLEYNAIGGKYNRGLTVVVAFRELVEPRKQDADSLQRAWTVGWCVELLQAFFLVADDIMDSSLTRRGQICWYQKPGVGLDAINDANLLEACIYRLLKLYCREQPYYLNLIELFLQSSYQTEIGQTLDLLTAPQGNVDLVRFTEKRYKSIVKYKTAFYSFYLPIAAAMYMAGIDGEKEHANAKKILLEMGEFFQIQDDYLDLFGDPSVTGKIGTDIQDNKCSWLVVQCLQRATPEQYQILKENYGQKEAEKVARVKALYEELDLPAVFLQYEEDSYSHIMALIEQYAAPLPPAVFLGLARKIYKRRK

O=P(O)(O)C(O)(C1CCc2ccncc21)P(=O)(O)O (stereo unspecified)
IC50: 630 nM
